Measurements from ChEMBL document CHEMBL3865842, “Spirobisnaphthalenes and lactones from the seeds of Strychnos angustiflora with potential anti-inflammatory activity” (Bioorg Med Chem Lett, 2016).

Assays:
BV-2 = test: Inhibition of LPS-induced nitric oxide production in mouse BV2 cells pretreated for 1 hr before LPS stimulation measured after 24 hrs by Griess assay; assay type: functional, cell-based
[1] = Cytotoxicity against human HCT116 cells at 10 uM measured after 72 hrs by MTT assay; assay type: toxicity, cell-based; conditions: hct-116, 72 h
[2] = Cytotoxicity against human HepG2 cells at 10 uM measured after 72 hrs by MTT assay; assay type: toxicity, cell-based; conditions: hepg2, 72 h
[3] = Cytotoxicity against human BGC823 cells at 10 uM measured after 72 hrs by MTT assay; assay type: toxicity, cell-based; conditions: bgc-823, 72 h
[4] = Cytotoxicity against human NCI-H1650 cells at 10 uM measured after 72 hrs by MTT assay; assay type: toxicity, cell-based; conditions: nci-h1650, 72 h
[5] = Cytotoxicity against human A2780 cells at 10 uM measured after 72 hrs by MTT assay; assay type: toxicity, cell-based; conditions: a2780, 72 h

IC50 (BV-2) [µM] | Structure (SMILES) | Activity [1] | Activity [2] | Activity [3] | Activity [4] | Activity [5]
2.05 | Oc1cccc2c1[C@@H](O)[C@H]1O[C@H]1C21Oc2cccc3cccc(c23)O1 | Non-Toxic | Non-Toxic | Non-Toxic | Non-Toxic | Non-Toxic
4.85 | Oc1cccc2c1[C@H](O)[C@@H]1O[C@@H]1C21Oc2cccc3cccc(c23)O1 | Non-Toxic | Non-Toxic | Non-Toxic | Non-Toxic | Non-Toxic
87.1 | COc1cc(O)cc2c1C(=O)O[C@@H](C)CCC[C@H](O)CCC2 | Non-Toxic | Non-Toxic | Non-Toxic | Non-Toxic | Non-Toxic
67.6 | Oc1cccc2c1[C@H](O)C[C@@H](O)C21Oc2cccc3cccc(c23)O1 | Non-Toxic | Non-Toxic | Non-Toxic | Non-Toxic | Non-Toxic
> 100 | O=C1C[C@@H](O)[C@]23Oc4cccc5c4[C@](CC[C@@H]5O)(Oc4ccc(O)c1c42)O3 | Non-Toxic | Non-Toxic | Non-Toxic | Non-Toxic | Non-Toxic
> 100 | COc1cc(O)cc2c1C(=O)O[C@@H](C)CCC[C@@H](O)CCC2 | Non-Toxic | Non-Toxic | Non-Toxic | Non-Toxic | Non-Toxic
> 100 | Oc1cccc2c1[C@@H](O)[C@H](O)[C@@H](O)C21Oc2cccc3cccc(c23)O1 | Non-Toxic | Non-Toxic | Non-Toxic | Non-Toxic | Non-Toxic
> 100 | O=C1CC[C@]23Oc4ccc(O)c5c4[C@](Oc4cccc1c42)(O3)[C@H](O)CC5=O | Non-Toxic | Non-Toxic | Non-Toxic | Non-Toxic | Non-Toxic
25.7 | CO[C@H]1c2c(O)cccc2C2(Oc3cccc4cccc(c34)O2)[C@H](O)[C@H]1O | Non-Toxic | Non-Toxic | Non-Toxic | Non-Toxic | Non-Toxic
11.7 | O=C1CC[C@]23Oc4ccc(O)c5c4[C@](Oc4cccc1c42)(O3)[C@@H]1O[C@@H]1[C@@H]5O | Non-Toxic | Non-Toxic | Non-Toxic | Non-Toxic | Non-Toxic
1.42 | COc1cc(/C=C/C(=O)CC(=O)/C=C/c2ccc(O)c(OC)c2)ccc1O [CURCUMIN] | – | – | – | – | –
> 100 | COc1cc(O)cc2c1C(=O)O[C@@H](C)CCCCCCC2 [LASIODIPLODIN] | Non-Toxic | Non-Toxic | Non-Toxic | Non-Toxic | Non-Toxic
1.16 | CO[C@@H]1CC(=O)c2cccc3c2[C@@]12Oc1ccc(O)c4c1[C@](O3)(O2)[C@@H]1O[C@@H]1[C@@H]4O [PREUSSOMERIN C] | Non-Toxic | Non-Toxic | Non-Toxic | Non-Toxic | Non-Toxic
